From patent US8629132B2, “Kinase inhibitors” (Genosco, priority 2009, dated 2014)

Assays:
RET = molecular target: T1, RET (Homo sapiens, UniProt P07949); test: Kinase inhibition assay: RET; format: biochemical
T1 construct: truncated human FAK, RET, FLT3, JAK2, and LRRK2; purchased Carna Biosciences
T1 sequence (P07949 658-1114 limits assumed): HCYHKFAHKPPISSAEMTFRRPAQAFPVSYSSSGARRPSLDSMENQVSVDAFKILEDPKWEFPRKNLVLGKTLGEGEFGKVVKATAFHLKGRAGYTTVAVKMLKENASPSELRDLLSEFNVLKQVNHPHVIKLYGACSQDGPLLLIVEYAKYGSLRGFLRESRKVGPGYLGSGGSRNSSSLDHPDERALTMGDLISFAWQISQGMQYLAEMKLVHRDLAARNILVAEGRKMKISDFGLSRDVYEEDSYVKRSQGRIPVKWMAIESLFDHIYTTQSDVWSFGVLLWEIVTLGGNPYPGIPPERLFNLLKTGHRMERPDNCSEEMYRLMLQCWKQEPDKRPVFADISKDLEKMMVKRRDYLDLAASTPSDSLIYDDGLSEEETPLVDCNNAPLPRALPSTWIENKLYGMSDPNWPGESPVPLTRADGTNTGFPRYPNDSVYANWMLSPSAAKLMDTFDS
Method: (§1) Compounds of the present invention were tested for their capacity to inhibit a kinase panel which includes, but are not limited to, spleen tyrosine kinase (SYK), zeta-chain-associated protein kinase 70 (ZAP70), PTK2B protein tyrosine kinase 2 (PYK2), focal adhesion kinase (FAK), provirus integration of maloney kinase 1 (PIM1), rearranged during transfection kinase (RET), Fms-like tyrosine kinase 3 (FLT3), Janus kinase 2 (JAK2), and leucine-rich repeat kinase 2 (LRRK2).
(§2) Inhibition of SYK, ZAP70, PYK2, FAK, PIM1, RET, FLT3, JAK2 and LRRK2 Kinase Activity
(§3) Compounds of the invention were initially diluted to 10 mM in 100% DMSO (CALBIOCHEM™) for storage and made into kinase buffer solution to create a compound concentration ranging from 1 uM and 10 uM. Serial dilutions of compounds of the invention were dispensed into a 96-well plate (GREINER BIOSCIENCES™) at 6 μL each. Purified full-length human SYK, ZAP70, PIM1, PYK2 and truncated human FAK, RET, FLT3, JAK2, and LRRK2 (CARNA BIOSCIENCES™) were diluted in kinase buffer and added to the compound solutions and pre-incubated for 30 minutes at room temperature (1 hour for PYK2). […] The reaction mixture was incubated for 1 hour (2 hours for PYK2). Following the incubation, the stop solution made with EDTA, water, and Lance detection buffer ([…]™) was added (12μL each) to stop phosphorylation. […] The IC50 value of test compound was calculated at Gradpad Prism 5 unless specified otherwise.

FLT3 = molecular target: T2, FLT3 (Homo sapiens, UniProt P36888); test: Kinase inhibition assay: FLT3; format: biochemical
T2 construct: truncated human FAK, RET, FLT3, JAK2, and LRRK2; purchased Carna Biosciences
T2 sequence (P36888 564-993 limits assumed): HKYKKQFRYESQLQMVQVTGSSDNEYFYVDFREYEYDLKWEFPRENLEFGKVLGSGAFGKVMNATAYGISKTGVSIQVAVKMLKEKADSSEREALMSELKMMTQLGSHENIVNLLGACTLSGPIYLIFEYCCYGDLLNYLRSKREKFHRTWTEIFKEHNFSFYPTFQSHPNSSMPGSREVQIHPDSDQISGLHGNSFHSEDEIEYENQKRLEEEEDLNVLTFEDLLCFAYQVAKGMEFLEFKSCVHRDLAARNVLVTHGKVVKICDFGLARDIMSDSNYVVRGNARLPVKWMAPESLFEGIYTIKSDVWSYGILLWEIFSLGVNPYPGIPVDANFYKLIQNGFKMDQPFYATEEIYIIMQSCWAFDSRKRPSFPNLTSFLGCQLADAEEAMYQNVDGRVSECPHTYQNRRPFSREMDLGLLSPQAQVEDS
Method: as §1, §2, §3

LRRK2 = molecular target: T3, LRRK2 (Homo sapiens, UniProt Q5S007); test: Kinase inhibition assay: LRRK2; format: biochemical; settings: for inhibition at 1 µM: at 1 μM concentration
T3 construct: truncated human FAK, RET, FLT3, JAK2, and LRRK2; purchased Carna Biosciences
T3 sequence (Q5S007 970-2527 limits assumed): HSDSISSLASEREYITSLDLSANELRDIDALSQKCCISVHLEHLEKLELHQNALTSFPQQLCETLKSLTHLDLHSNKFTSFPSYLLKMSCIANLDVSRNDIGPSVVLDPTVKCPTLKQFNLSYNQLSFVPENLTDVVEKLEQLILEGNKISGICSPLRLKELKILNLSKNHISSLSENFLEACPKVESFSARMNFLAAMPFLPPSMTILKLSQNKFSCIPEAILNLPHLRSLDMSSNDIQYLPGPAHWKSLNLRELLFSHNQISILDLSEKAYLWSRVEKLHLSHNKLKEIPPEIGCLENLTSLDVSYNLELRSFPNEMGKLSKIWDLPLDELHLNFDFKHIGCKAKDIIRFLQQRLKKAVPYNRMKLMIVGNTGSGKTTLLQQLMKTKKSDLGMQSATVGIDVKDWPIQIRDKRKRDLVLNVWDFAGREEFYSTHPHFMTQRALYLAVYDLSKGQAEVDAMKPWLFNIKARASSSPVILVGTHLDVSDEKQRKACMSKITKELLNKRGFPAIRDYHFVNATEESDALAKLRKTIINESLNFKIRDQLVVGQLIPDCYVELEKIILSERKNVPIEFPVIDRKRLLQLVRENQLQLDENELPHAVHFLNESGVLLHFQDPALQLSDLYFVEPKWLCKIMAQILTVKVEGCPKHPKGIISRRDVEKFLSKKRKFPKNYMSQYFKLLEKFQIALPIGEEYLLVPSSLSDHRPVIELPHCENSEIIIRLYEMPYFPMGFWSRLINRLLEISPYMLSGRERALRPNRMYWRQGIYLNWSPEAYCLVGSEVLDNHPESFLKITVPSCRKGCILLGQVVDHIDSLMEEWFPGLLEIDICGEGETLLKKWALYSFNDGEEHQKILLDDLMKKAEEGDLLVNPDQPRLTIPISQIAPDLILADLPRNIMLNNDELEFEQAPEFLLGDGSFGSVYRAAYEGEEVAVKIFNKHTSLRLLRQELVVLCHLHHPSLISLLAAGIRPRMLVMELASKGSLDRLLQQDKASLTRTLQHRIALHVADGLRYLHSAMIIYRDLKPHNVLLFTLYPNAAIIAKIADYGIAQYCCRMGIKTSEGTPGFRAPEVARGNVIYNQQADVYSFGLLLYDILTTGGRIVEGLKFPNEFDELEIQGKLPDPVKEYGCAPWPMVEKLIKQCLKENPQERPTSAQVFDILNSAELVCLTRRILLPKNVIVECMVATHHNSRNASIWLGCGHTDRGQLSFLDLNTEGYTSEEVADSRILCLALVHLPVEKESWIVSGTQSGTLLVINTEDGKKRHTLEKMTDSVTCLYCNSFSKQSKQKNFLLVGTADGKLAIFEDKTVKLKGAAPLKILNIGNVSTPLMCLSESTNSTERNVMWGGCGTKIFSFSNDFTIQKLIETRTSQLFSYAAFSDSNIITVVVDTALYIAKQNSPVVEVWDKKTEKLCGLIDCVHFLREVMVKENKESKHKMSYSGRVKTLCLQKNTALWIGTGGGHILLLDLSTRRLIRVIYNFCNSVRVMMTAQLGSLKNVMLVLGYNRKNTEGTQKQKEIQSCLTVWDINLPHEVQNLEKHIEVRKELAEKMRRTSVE
Method: as §1, §2, §3

HEL cells = test: Cell viability assay: JAK2 inhibition; format: cell-based, human; settings: for IC50: Homo sapiens, 72-hour incubation, HEL cells expressing JAK2 V617F, read-out: Cell Viability: JAK2 kinase Inhibition HEL (IC50 nM)
Method: Compounds of the invention are tested for their effects on JAK2 inhibition in human erythroleukemic cell line (HEL) to illustrate potential efficacy at the cellular level. The Janus-associated kinase (JAK) family, comprised of four different protein tyrosine kinases JAK1, JAK2, JAK3, and TYK2, plays an important role in cellular survival, proliferation, and differentiation. V617F, a unique mutation in the JAK2 gene (a valine-to-phenylalanine substitution) results in constitutive kinase activity and promotes deregulated hematopoiesis. JAK2 V617F is frequently detected in myeloproliferative disorders (MPDs), a group of clonal hematopoietic stem cell disorders that include polycythemia vera (PV), essential thrombocythemia (ET), and idiopathic myelofibrosis (IMF), all of which have the potential to transform to acute myeloid leukemia. JAK2 V617F is constitutively phosphorylated and able to activate downstream signaling in the absence of cytokine stimulation.
Compounds of the present invention were tested for their effects on viability of HEL cells. For cell viability assay, HEL cells expressing human JAK2 V617F were obtained from the American Type Culture Collection (ATCC, Manassas, Va.). This cell line was maintained with Roswell Park Memorial Institute (RPMI) medium (HyClone™) containing 10 bovine calf serum (BCS; Hyclone™) supplemented iron. The HEL cells were seeded at 2×10^4 cells in 96 well culture plates, and serially diluted compound was then added. After a 72-hour incubation period at 37° C., viability of cells was measured using the ATPLite 1 step assay (Perkin-Elmer™) that is based on the quantification of ATP from viable cells. CellTiter Aqueous assay (Promega™) was also performed in parallel as an orthogonal assay. IC50 values were calculated using nonlinear regression and defined as the concentration needed for a 50 reduction in luminescence or absorbance treated versus untreated control cells (Prism™ Software).

JAK2 = JAK2 (Homo sapiens, UniProt O60674); test: Kinase inhibition assay: JAK2; format: biochemical; set-up: truncated human FAK, RET, FLT3, JAK2, and LRRK2; purchased Carna Biosciences
Chain of JAK2 (O60674 826-1132 limits assumed): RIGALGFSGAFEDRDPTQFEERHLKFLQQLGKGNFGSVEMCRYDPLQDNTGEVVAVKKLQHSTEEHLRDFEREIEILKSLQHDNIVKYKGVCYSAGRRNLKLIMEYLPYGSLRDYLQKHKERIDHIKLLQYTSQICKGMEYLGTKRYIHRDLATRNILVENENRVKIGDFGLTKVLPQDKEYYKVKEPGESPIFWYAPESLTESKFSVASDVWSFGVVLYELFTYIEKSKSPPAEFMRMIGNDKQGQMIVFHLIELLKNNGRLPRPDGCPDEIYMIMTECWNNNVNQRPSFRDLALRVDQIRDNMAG
Method: as §1, §2, §3

MV4-11 cells = test: Cell viability assay: FLT3-ITD-positive cells; format: cell-based, human; settings: for inhibition level compared with Vandetinib and Sunitinib: FLT3 ITD induced cancer cell line (MV4-11); for IC50: Homo sapiens, MV4-11, 72-hour incubation, read-out: Viability of FLT3-ITD Induced Cancer Cell Line MV-4-11 (IC50 nM)
Method: Compounds of the invention were tested for their effects on inhibition of FLT3-ITD in human acute leukemia cell line (MV4-11). FLT3 is primarily expressed in immature hematopoietic progenitor as well as in mature myeloid cells. It belongs to type III receptor tyrosine kinase (RTK) family including KIT, FMS, and PDGFR. It is activated by binding to FL, which leads to increased kinase activity and activation of downstream signaling pathway including STATS, Ras, and PI3Kinase.
Compounds of the invention were tested for cell viability effect on MV4-11 cells. For cell viability assay, MV4-11 cells expressing human FLT3-ITD were obtained from the American Type Culture Collection (ATCC, Manassas, Va.). This cell line was maintained with an Roswell Park Memorial Institute (RPMI) medium (HyClone™) containing 10 bovine calf serum (BCS; Hyclone™) supplemented iron. The MV4-11 cells were seeded at 2×10^4 cells in 96-well culture plates, and serially diluted compound was then added. After a 72-hour incubation period at 37° C., cell viability was measured using the ATPLite 1 step assay (Perkin-Elmer™) that is based on the quantification of ATP from viable cells. CellTiter Aqueous assay (Promega™) was also performed in parallel as an orthogonal assay. IC50 values were calculated using nonlinear regression and defined as the concentration needed for a 50 reduction in luminescence or absorbance treated versus untreated control cells (Prism™ Software).

SYK = molecular target: T4, SYK (Homo sapiens, UniProt P43405); test: Kinase inhibition assay: SYK; format: biochemical; settings: at 1 μM concentration
T4 construct: Purified full-length human SYK, ZAP70, PIM1, PYK2; purchased Carna Biosciences
Method: as §1, §2, §3

PYK2 = molecular target: T5, PYK2 (Homo sapiens, UniProt Q14289); test: Kinase inhibition assay: PYK2; format: biochemical; settings: at 1 μM concentration
T5 construct: Purified full-length human SYK, ZAP70, PIM1, PYK2; purchased Carna Biosciences
T5 sequence (Q14289 whole entry): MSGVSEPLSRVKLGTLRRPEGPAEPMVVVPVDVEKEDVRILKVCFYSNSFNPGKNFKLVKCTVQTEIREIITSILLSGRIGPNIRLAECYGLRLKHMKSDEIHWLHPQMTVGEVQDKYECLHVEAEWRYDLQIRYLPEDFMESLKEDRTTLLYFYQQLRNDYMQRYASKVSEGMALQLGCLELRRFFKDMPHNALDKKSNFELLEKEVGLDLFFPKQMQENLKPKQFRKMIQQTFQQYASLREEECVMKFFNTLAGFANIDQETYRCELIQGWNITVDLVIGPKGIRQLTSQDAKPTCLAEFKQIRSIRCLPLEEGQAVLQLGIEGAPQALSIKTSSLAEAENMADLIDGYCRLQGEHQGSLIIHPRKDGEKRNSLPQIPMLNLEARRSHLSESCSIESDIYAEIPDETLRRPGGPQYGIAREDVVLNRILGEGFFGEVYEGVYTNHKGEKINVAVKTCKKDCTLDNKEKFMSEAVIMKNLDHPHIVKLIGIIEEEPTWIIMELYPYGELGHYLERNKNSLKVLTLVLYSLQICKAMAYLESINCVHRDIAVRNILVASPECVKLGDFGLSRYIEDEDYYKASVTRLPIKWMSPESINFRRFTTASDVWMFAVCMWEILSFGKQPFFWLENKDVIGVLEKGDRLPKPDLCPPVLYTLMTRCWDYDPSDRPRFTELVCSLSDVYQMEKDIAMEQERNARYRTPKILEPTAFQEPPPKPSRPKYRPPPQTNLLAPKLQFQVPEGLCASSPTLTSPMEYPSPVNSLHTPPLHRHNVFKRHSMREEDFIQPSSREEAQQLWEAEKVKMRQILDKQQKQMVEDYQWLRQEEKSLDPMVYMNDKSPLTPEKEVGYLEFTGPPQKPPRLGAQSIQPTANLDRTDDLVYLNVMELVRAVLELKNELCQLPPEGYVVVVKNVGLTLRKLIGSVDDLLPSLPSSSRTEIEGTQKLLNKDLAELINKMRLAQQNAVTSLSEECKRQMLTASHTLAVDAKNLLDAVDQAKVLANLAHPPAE
Method: as §1, §2, §3

FAK = molecular target: T6, FAK (Homo sapiens, UniProt Q05397); test: Kinase inhibition assay: FAK; format: biochemical; settings: at 1 μM concentration
T6 construct: truncated human FAK, RET, FLT3, JAK2, and LRRK2; purchased Carna Biosciences
T6 sequence (Q05397 376-1052 limits assumed): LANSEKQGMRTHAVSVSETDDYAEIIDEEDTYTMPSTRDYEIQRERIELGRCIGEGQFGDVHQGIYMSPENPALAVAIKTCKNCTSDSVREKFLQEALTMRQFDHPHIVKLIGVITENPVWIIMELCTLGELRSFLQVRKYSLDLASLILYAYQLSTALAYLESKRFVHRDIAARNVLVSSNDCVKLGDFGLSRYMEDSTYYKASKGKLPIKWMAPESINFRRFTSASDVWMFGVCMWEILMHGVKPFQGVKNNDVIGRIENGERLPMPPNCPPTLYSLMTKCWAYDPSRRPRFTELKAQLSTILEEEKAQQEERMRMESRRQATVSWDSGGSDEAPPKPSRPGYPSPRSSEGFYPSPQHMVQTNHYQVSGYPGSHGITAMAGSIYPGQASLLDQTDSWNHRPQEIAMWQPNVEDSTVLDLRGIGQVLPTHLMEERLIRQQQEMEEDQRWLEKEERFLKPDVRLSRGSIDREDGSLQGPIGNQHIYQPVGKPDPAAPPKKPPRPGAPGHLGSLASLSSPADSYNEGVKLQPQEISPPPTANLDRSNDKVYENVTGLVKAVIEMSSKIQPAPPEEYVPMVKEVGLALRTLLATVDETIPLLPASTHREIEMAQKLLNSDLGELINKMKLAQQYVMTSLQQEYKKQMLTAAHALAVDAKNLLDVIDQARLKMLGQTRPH
Method: as §1, §2, §3

ZAP70 = molecular target: T7, ZAP70 (Homo sapiens, UniProt P43403); test: Kinase inhibition assay: ZAP70; format: biochemical; settings: at 1 μM concentration
T7 construct: Purified full-length human SYK, ZAP70, PIM1, PYK2; purchased Carna Biosciences
T7 sequence (P43403 1-619): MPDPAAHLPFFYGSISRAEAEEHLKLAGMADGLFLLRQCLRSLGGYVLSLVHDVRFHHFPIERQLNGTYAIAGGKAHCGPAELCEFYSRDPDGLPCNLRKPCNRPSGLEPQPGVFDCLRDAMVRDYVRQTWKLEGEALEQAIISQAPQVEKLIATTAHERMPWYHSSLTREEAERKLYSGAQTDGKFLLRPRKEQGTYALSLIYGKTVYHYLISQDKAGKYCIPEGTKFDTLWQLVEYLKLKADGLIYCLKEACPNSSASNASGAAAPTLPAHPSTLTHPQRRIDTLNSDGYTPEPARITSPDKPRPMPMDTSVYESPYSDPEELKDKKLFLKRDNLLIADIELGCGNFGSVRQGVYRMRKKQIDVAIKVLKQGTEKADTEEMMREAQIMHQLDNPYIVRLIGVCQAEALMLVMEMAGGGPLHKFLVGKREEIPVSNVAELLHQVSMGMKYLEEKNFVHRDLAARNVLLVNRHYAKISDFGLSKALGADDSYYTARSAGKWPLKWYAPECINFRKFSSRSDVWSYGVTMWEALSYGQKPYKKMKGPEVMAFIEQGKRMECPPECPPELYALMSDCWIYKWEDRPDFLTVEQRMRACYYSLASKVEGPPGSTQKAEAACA
Method: as §1, §2, §3

Work on `Cc1cc(C)cc(Nc2nccc(-n3cc(C(=O)N(C)CCO)c(C)n3)n2)c1` [Compound 29, 1-(2-(3,5-dimethylphenylamino)pyrimidin-4-yl)-N-(2-hydroxyethyl)-N,3-dimethyl-1H-pyrazole-4-carboxamide] yielded an inhibition at 1 µM (RET; at 1 μM concentration) of 42%, an inhibition at 1 µM (FLT3; at 1 μM concentration) of 53% and an inhibition at 1 µM (LRRK2) of 31.4%.
With `Cc1cn(-c2nc(Nc3ccc(N4CC[C@H](O)C4)c(C)c3)ncc2C)cc1CO` [Compound 24, (S)-1-(4-(4-(3-(hydroxyl-methyl)-4-methyl-1H-pyrrol-1-yl)-5-methyl-pyrimidin-2-ylamino)-2-methylphenyl)pyrrolidin-3-ol] the IC50 (RET) was 40.4 nM, the IC50 (FLT3) was 6.8 nM and the “inhibition level compared with Sorafenib” value (HEL cells; HEL) was “greater than those exhibited by Sorafenib”. For the same compound, the IC50 (HEL cells) was 229 nM and the IC50 (JAK2) was 1.6 nM.
For `COc1cc(Nc2ncc(C)c(-n3cc(C)c(CN4CC(O)C4)c3)n2)cc(OC)c1OC` [Compound 91, 1-((4-methyl-1-(5-methyl-2-(3,4,5-trimethoxyphenylamino)pyrimidin-4-yl)-1H-pyrrol-3-yl)methyl)azetidin-3-ol], the IC50 (RET) was 5.2 nM, the IC50 (FLT3) was 0.4 nM and the IC50 (LRRK2) was 424 nM. The “inhibition level compared with Vandetinib and Sunitinib” value (MV4-11 cells) was “greater than those exhibited by Vandetinib and Sunitinib”, the IC50 (MV4-11 cells) was 1.5 nM and the IC50 (JAK2) was 36.5 nM.
With `COc1cc(Nc2ncc(C)c(-n3cc(C)c(CN4CC(OC(=O)C(C)(C)C)C4)c3)n2)cc(OC)c1OC` [Compound 93, 1-((4-methyl-1-(5-methyl-2-(3,4,5-trimethoxyphenylamino)pyrimidin-4-yl)-1H-pyrrol-3-yl)methyl)azetidin-3-yl pivalate] the IC50 (RET) was 76.1 nM, the IC50 (FLT3) was 11.7 nM and the “inhibition level compared with Vandetinib and Sunitinib” value (MV4-11 cells) was “greater than those exhibited by Vandetinib and Sunitinib”. The IC50 (MV4-11 cells) was 0.6 nM and the IC50 (JAK2) was 219 nM.
`CNC(=O)c1cc(Oc2ccc(NC(=O)Nc3ccc(Cl)c(C(F)(F)F)c3)cc2)ccn1` [Sorafenib, reference compound] gave an IC50 (HEL cells) of over 1000 nM.
`Cc1cc(C)cc(Nc2nccc(-n3cc(C)c(CN4CC[C@@H](O)C4)c3)n2)c1` [Compound 41, (R)-1-((1-(2-(3,5-dimethylphenylamino)pyrimidin-4-yl)-4-methyl-1H-pyrrol-3-yl)methyl)pyrrolidin-3-ol] gave an inhibition at 1 µM (SYK) of 99.3%, an inhibition at 1 µM (PYK2) of 30.7% and an inhibition at 1 µM (FAK) of 13.9%.
Work on `COc1cc(Nc2ncc(F)c(-n3cc(C)c(CO)c3)n2)cc(OC)c1` [Compound 16, (1-(2-(3,5-dimethoxy-phenylamino)-5-fluoro-pyrimidin-4-yl)-4-methyl-1H-pyrrol-3-yl)methanol] yielded an inhibition at 1 µM (SYK) of 80.7%, an inhibition at 1 µM (ZAP70) of 31.9% and an inhibition at 1 µM (PYK2) of 84.9%. It also gave an inhibition at 1 µM (FAK) of 34.1%.
`Cc1cc(C)cc(Nc2nccc(-n3cc(C(=O)N4CC[C@@H](O)C4)c(C)n3)n2)c1` [Compound 32, (R)-(1-(2-(3,5-dimethylphenylamino)pyrimidin-4-yl)-3-methyl-1H-pyrazol-4-yl)(3-hydroxypyrrolidin-1-yl)methanone] gave an IC50 (RET) of 51.3 nM, an inhibition at 1 µM (LRRK2) of 44.3% and an inhibition at 1 µM (JAK2; at 1 μM concentration) of 40%.
